Series [1] relates to Panc-1 pancreatic cancer cell line. Nature of the series: CellTiter Glo viability assay, Panc-1. Format: cell-based. The note with it: for IC50: Homo sapiens, PANC-1, 48 h; for toxicity without the β-glucuronidase enzyme: Panc-1, up to 100 μM. The protocol: (§1) For CellTiter Glo viability assays, 10,000 cells per well were plated on Day 1 and were allowed to adhere to the plate surface for 24 hours. Optimized concentration ranges of prodrugs were determined and made via serial dilution. […] Cells were incubated with compound for 48 hours and viability was assessed on Day 4 using the CellTiter Glo Viability assay which measures metabolically active cells by quantifying the amount of ATP present.
(§2) Panc-1 cells were obtained from Tony Kouzarides' lab in the Gurdon Institute at the University of Cambridge and put into culture at passage 10 containing DMEM media (Gibco) supplemented with 1% Pen-Strep antibiotic (Gibco), 1% L-glutamine, and 10% fetal bovine serum (FBS, sterile-filtered). Aspc-1 cells were bought commercially from the American Type Culture Collection (ATCC) and put into culture containing RPMI 1640 media (Gibco) supplemented with 1% Pen-Strep antibiotic (Gibco), 1% L-glutamine, and 20% fetal bovine serum (FBS, sterile-filtered). All cell lines were started at passage 10 and passaged every 3 days by centrifuging at 1000 rpm for 4 minutes.
A general note: Cellular ATP, detected with luciferase, serves as a proxy for viable cell number.

Series [2] in a line: Glucuronide kinetics assay (release of β-lapachone after β-glucuronide deprotection). Format: physicochemical. The protocol: Glucuronide prodrug (37a, b, c, d) was dissolved in DMSO to a concentration of 10 mM. A 100 mM stock solution of warfarin in DMSO was also prepared. To obtain deprotected para-hydroxybenzyl ketol species, the glucuronide stock solution was dissolved in PBS with 16.7% DMF to a concentration of 1.7 mM. 15 μL of a stock solution of R-glucuronidase from E. coli K-12 (Roche #03707580001, 140 U/mL) was added to 900 μL of this stock and incubated for 20 min at 37° C. 15 μL of a 100 mM stock of warfarin internal standard in DMSO was added. Reactions were then set up immediately. For a reaction, 30 μL of the amino-benzyl ketol/standard stock was added to 195 μL of citrate-phosphate buffer at the specified pH. Test samples were incubated at 37° C. with shaking. At the recorded time points, 20 μL aliquots of the reactions were analysed by HPLC (254 nm, Agilent 1260 Infinity). HPLC conditions: column Agilent InfinityLab Poroshell 120 SB—C18 2.7 μm, 50×4.6 mm; solvent system A=H2O+0.1% TFA, B=acetonitrile+0.1% TFA; flow=1 mL/min. Gradient: t=0-1 min 0% B, t=1-2 min 0-30% B, t=2-17 min 30-40% B, t=17-17.1 min 40-100% B, t=17.1-18 min 100% B, t=18-23 min 0% B. Relative peak area represents raw peak area (mAU*s) normalized to raw peak area of the warfarin internal standard. Values recorded are averages of three independent reactions and error bars display standard error of the mean. Values were fitted to first-order kinetics using GraphPad Prism 9 software. A positive control experiment was performed under identical conditions with known substrate 4-nitrophenyl-β-D-glucuronide (Sigma Aldrich) to confirm enzyme activity.

Series [3] concerns Aspc-1 pancreatic cancer cell line. Nature of the series: CellTiter Glo viability assay, Aspc-1. Format: cell-based. To be noted: for toxicity without the β-glucuronidase enzyme: Aspc-1, up to 100 μM; for IC50: Homo sapiens, ASPC1, 48 h. The protocol: as §1, §2
A short description of series [4]: pH-rate aqueous kinetic analysis of fragmentation (para-aminobenzyl ketols). The note with it: for pH at which elimination rate peaks / half-life at 0.155 mM: citrate-phosphate buffer; for half-life at 0.155 mM: pH 7, pH 7, read-out: release t1/2 (converted). In kind it is physicochemical. The protocol:
pH-rate analysis was performed by adaption of the PenG assay. To obtain deprotected para-aminobenzyl ketol species, 2-phenylacetyl protected ketol was dissolved in PBS with 33% DMF to a concentration of 3.3 mM. 20 μL of a stock solution of PenG was added to 600 μL of this stock and incubated for 20 min at 37° C. 20 μL of a 100 mM stock of internal standard in DMSO was added. Reactions were then set up immediately. For a reaction, 10 μL of the amino-benzyl ketol/standard stock was added to 190 μL of citrate-phosphate buffer at the specified pH to obtain an aqueous solution containing 1.8% DMSO. Test samples were incubated at 37° C. with shaking. At the recorded time points, 20 μL aliquots of the reactions were analysed by HPLC (254 nm, ThermoFisher U3000). HPLC conditions: column Phenomenex Kinetex C18 5 μm, 50×4.6 mm, 100 Å; solvent system A=H2O, B=acetonitrile; flow=1 mL/min. Gradient and solvent system for assay with PAB-PhQ 7: A=H2O, B=acetonitrile, t=0-1 min 0% B, t=1-10 min 0-100% B, t=10-11 min 0% B. Gradient and solvent system for assay with PAB-BL 10 and PAB-DN 18: A=H2O+0.1% formic acid, B=acetonitrile+0.1% formic acid, t=0-1 min 0% B, t=1-10 min 0-40% B, t=10-16 min 40-50% B, t=16.1 min 100% B, t=16.1-18 min 100% B, t=18-20 min 0% B. Values described represent peak area (mAU*min) divided by peak area of internal standard. Where necessary, peaks were deconvoluted using Origin fitting software. Recorded values are averages of three independent reactions and error bars display standard error of the mean. Values were fitted using GraphPad Prism software. Rate and half-life measurements were calculated based on disappearance of the para-aminobenzyl ketol species.

The nature of series [5]: Penicillin-G amidase mediated kinetic analysis of elimination at physiological pH. In kind it is physicochemical. To be noted: pH 7.4, 37° C. The protocol:
Stocks of 2-phenylacetyl-para-aminobenzyl ketol were made up in DMF at a concentration of 10 mM. For a reaction, 17.5 μL of ketol stock was added to 17.5 μL of a 10 mM stock of internal standard in DMF and 310 μL of PBS at pH 7.4. To initiate a reaction, 5 μL of a suspension of Penicillin-G amidase (PenG, Sigma Aldrich enzyme 76427, 5-10 U/mg) was added. In control samples 5 μL of PBS was added in place of the enzyme. Test and control samples were then incubated at 37° C. with shaking. At the recorded time points, 20 μL aliquots of the reactions were analysed by HPLC (254 nm, ThermoFisher U3000). HPLC column: Phenomenex Kinetex C18, 5 μm, 50×4.6 mm, 100 Å; flow=1 mL/min. Gradient and solvent system for assay with 2-phenylacetyl-PAB-PhQ 21: A=H2O, B=acetonitrile, t=0-1 min 0% B, t=1-10 min 0-100% B, t=10-11 min 0% B. Gradient and solvent system for assay with 2-phenylacetyl-PAB-BL 22 and 2-phenylacetyl-PAB-DN 23: A=H2O+0.1% formic acid, B=acetonitrile+0.1% formic acid, t=0-1 min 0% B, t=1-10 min 0-40% B, t=10-16 min 40-50% B, t=16.1 min 100% B, t=16.1-18 min 100% B, t=18-20 min 0% B. Peaks were identified by LCMS analysis and comparison with pure compounds. Values described represent peak area (mAU*min) divided by peak area of internal standard. Recorded values are averages of three independent reactions and error bars display standard error of the mean. Fitting was performed using GraphPad Prism 8 software. Rate and half-life measurements were calculated by consumption of intermediate para-aminobenzyl ketol and formation of product quinone.

A short description of series [6]: 1H NMR kinetic analysis of elimination of PAB-PhQ. Format: physicochemical. The note with it: 25° C., moderately acidic methanolic solution. The protocol: Kinetics of the release of PhQ 4, from PAB-PhQ 7 were monitored by ^1H NMR at 25° C. Analysis was performed in MeOD due to poor solubility of the compound in H2O. To form the active eliminating species, Boc-PAB-PhQ 6 was dissolved in dichloromethane/trifluoroacetic acid 4:1 at 0° C. and stirred for 30 min, upon which the reaction appeared complete by thin-layer chromatography. Product 7 was dried in vacuo before being dissolved in MeOD. Basicity of the solution was altered by addition of triethylamine (drops). pH was estimated using pH paper. pH values are indicative only as analysis is performed in MeOD. Elimination rates were determined from the aromatic region. Kinetics were measured by monitoring the integral of one peak, normalised to number of protons present (i.e. integral of 1H), divided by the total integral of the aromatic region (δ=6.2-8.6 ppm, i.e. integral of 12H). Analysis was performed using Mestrenova 8.0 processing software and rate constants were calculated using GraphPad Prism v8.0 software.

In a further series the test system is MOLM-13. The experiment in a line: Viability assay with small molecule prodrugs, Trypan Blue exclusion, MOLM-13. In kind it is cell-based. To be noted: 5 μM, 24 h timepoint. The protocol: For assays assessing cytotoxicity of β-lapachone versus small molecule dipeptide prodrugs, suspension cells were plated into 24 well plates at a density of 2.5×10^5 cells/mL in 240 μL. Serial dilutions of compound were made up in PBS. 60 μL of each stock of either PBS, or compound in PBS was added to the cells to achieve the desired final concentration. After the specified incubation time, toxicity was assessed by counting of live cells using the Trypan Blue exclusion method with a Countess II Automated Cell Counter (ThermoFisher Scientific) according to the manufacturer's instructions. Cell viability was determined by division of average live cell number of treated wells by average live cell number for control wells treated with PBS only. Values recorded are the mean of three repeat wells, with error bars representing the standard error of the mean for each concentration tested. IC50 values were calculated using GraphPad Prism software.

Read-outs that look alike come from different tables or passages of the source.

Results on 7 compounds are retold here after US20250170252A1, “QUINONE PROTECTED FORMS AND CONJUGATES” (CAMBRIDGE ENTERPRISE LIMITED, priority 2022, published 2025).

As usually defined, the IC50 is the concentration needed to halve the response being measured.

Turning to `COc1cc(O[C@@H]2O[C@H](C(=O)O)[C@@H](O)[C@H](O)[C@H]2O)ccc1CC1(O)C(=O)C2=C(OC(C)(C)CC2)c2ccccc21` (single isomer, unassigned) [Compound 37d], the IC50 stood at 0.904 µM in series [1] and 2.99 µM in series [3]. The “toxicity without the β-glucuronidase enzyme” value in series [1] and in series [3] was “no toxicity” in each case. Also, the “release rate compared with other derivatives” value in series [2] (pH 6-10 (FIG. 7)) is listed as “orders of magnitude faster release”.
`Nc1ccc(CC2(O)C(=O)c3ccccc3-c3ccccc32)cc1` (centres unmarked) [Compound 7, 10-(4-aminobenzyl)-10-hydroxyphenanthren-9(10H)-one]: in series [4] (37° C.), the “pH at which elimination rate peaks” value was 5-6. The “elimination of 7, rate kobs” value in series [5] (intermediate 7 generated from 21) is given as 9.72 (±2.88)×10^−6 s^−1. Also, the “rate of consumption of 7 (kobs)” value in series [6] (first-order fit) is given as 6.18±0.12×10^−5 s^−1. Besides, in series [6] (from 7), the “rate of formation of product 4 (kobs)” value is 6.55±0.22×10^−5 s^−1. The “time to complete release” value in series [6] (release of 4 from 7) is reported as not above 20 h.
Consider `CC1(C)CCC2=C(O1)c1ccccc1C(O)(Cc1ccc(N)cc1)C2=O` (centres unmarked) [Compound 10, 6-(4-aminobenzyl)-6-hydroxy-2,2-dimethyl-2,3,4,6-tetrahydro-5H-benzo[h]chromen-5-one], for which the “pH at which elimination rate peaks” value in series [4] (37° C.) turned out to be 3. The half-life at 0.155 mM in series [4] (additional repeats of the experiments) is 542 days; in series [4] (initially reported value) it was 32.9 days. The same compound yielded a release rate kobs in series [4] (pH 7, initially reported value) of 2.4e-07 s⁻¹. Further, the “elimination resulting in formation of 1” value in series [4] (pH≥6 within 72 h, 37° C.) is “Negligible elimination”.
`O=C(Cc1ccccc1)Nc1ccc(CC2(O)C(=O)c3ccccc3-c3ccccc32)cc1` (centres unmarked) [Compound 21, 2-Phenyl-acetyl-para-aminobenzyl phenanthrene-ketol]: in series [5] (following addition of Penicillin-G amidase to 21), the “formation of PhQ 4, rate kobs” value is recorded as 1.15 (±0.66)×10^−5 s^−1. Moreover, in series [5] (no Penicillin-G amidase), the “stability without added enzyme” value was “stable”.
For `CC(=O)Oc1c2c(c3ccccc3c1OC(C)=O)OC(C)(C)CC2` [Compound 29, 2,2-dimethyl-3,4-dihydro-2H-benzo[h]chromene-5,6-diyl diacetate], the “toxicity to MOLM-13” value in the series on MOLM-13 is listed as “complete cell death”.
For the compound `CC1(C)CCC2=C(O1)c1ccccc1C(O)(Cc1cc(F)c(O[C@@H]3O[C@H](C(=O)O)[C@@H](O)[C@H](O)[C@H]3O)c(F)c1)C2=O` (stereo partly drawn) [Compound 37b, (2S,3S,4S,5R,6S)-6-(2,6-difluoro-4-((6-hydroxy-2,2-dimethyl-5-oxo-3,4,5,6-tetrahydro-2H-benzo[h]chromen-6-yl)methyl)phenoxy)-3,4,5-trihydroxytetrahydro-2H-pyran-2-carboxylic acid], the IC50 is 13.4 µM in series [1] and 24.4 µM in series [3]. Moreover, the “toxicity without the β-glucuronidase enzyme” value in series [1] and in series [3] was “no toxicity” in each case. The entries for the “elimination rate compared with plain PHB linker” value in series [2] (pH 3-7 (FIG. 6)) and in series [2] (pH 8-10 (FIG. 6)) were “faster” and “slower”, respectively. For the same compound, the “elimination rate compared with plain PHB linker 37a” value in series [2] (pH 3-8.5 (FIG. 7)) is recorded as “faster”; in series [2] (pH 9-10 (FIG. 7)), “slower”. Besides, in series [2] (pH 7, 37° C., after β-glucuronide deprotection, first experiments), the “release rate of β-lapachone, kobs” value was 2.68e-06 s⁻¹. Moreover, the “quinone release rate, kobs” value in series [2] (pH 7, additional fragmentation experiments) was determined as 4.2e-06 s⁻¹.
In the case of “para-Aminobenzyl dunni-ketol [Compound 18]”, the “elimination rate compared with PAB-BL 10” value in series [4] (37° C., range of pH values) is given as “very similar rate”.
